From ChEMBL document CHEMBL1135031, “Sequestration of bacterial lipopolysaccharide by bis(Args) gemini compounds” (Bioorg Med Chem Lett, 2002)
Values after ≈ are worked out from the molar mass of the structure shown.

Experiments:
[1] = Dose that resulted in 100% lethality in murine model of CF-1 mice; format: ADME; settings: mouse, in vivo
Mus musculus [2] = test: Tested for protective effect in D-galactosamine (800 mg/kg) sensitized mice injected with lipopolysaccharides at 20 ng/mouse and compound dose of 10 ug/mouse (ip); 7/10 (dead/ Total mice); format: functional
Mus musculus [3] = test: Tested for protective effect in D-galactosamine (800 mg/kg) sensitized mice injected with lipopolysaccharides at 20 ng/mouse and compound dose of 40 ug/mouse (ip); 0/10 (dead/ Total mice); format: functional
Mus musculus [4] = test: Tested for protective effect in D-galactosamine (800 mg/kg) sensitized mice injected with lipopolysaccharides at 0 ng/mouse and compound dose of 10 ug/mouse (ip); 0/5 (dead/ Total mice); format: functional
Mus musculus [5] = test: Tested for protective effect in D-galactosamine (800 mg/kg) sensitized mice injected with lipopolysaccharides at 20 ng/mouse and compound dose of 0 ug/mouse (ip); 5/5 (dead/ Total mice); format: functional
Mus musculus [6] = test: Tested for protective effect in D-galactosamine (800 mg/kg) sensitized mice injected with lipopolysaccharides at 0 ng/mouse and compound dose of 40 ug/mouse (ip); 0/5 (dead/ Total mice); format: functional
Mus musculus [7] = test: Tested for protective effect in D-galactosamine (800 mg/kg) sensitized mice injected with lipopolysaccharides at 40 ng/mouse and compound dose of 40 ug/mouse (ip); 6/10 (dead/ Total mice); format: functional
Mus musculus [8] = test: Tested for protective effect in D-galactosamine (800 mg/kg) sensitized mice injected with lipopolysaccharides at 40 ng/mouse and compound dose of 10 ug/mouse (ip); 9/10 (dead/ Total mice); format: functional
Mus musculus [9] = test: Tested for protective effect in D-galactosamine (800 mg/kg) sensitized mice injected with lipopolysaccharides at 40 ng/mouse and compound dose of 0 ug/mouse (ip); 5/5 (dead/ Total mice); format: functional
J774.A1 = test: Inhibition of TNF-a production by J774.A1 cells stimulated for 18 hr with Escherichia coli O111:B4 LPS (25 ng/mL); format: functional; settings: Mus musculus, J774.A1, 18 h; read-out: ED50 (the source's name)

Row | SMILES | Lethal dose [1] [ng/mL] | Lethality (Mus musculus [2]) | Lethality (Mus musculus [3]) | Lethality (Mus musculus [4]) | Lethality (Mus musculus [5]) | Lethality (Mus musculus [6]) | Lethality (Mus musculus [7]) | Lethality (Mus musculus [8]) | Lethality (Mus musculus [9]) | EC50 (J774.A1) [µg/mL]
1 | CCCCCCCCCCCC(=O)N[C@@H](CCCN=C(N)N)C(=O)NCCCCCCCCCNC(=O)[C@H](CCCN=C(N)N)NC(=O)CCCCCCCCCCC | 10 | 7 | 0 | 0 | 5 | 0 | 6 | 9 | 5 | 2.5 (≈ 2.99 µM)
2 | CCCCCCCCCCCC(=O)N[C@@H](CCCN=C(N)N)C(=O)NCCCCCCNC(=O)[C@H](CCCN=C(N)N)NC(=O)CCCCCCCCCCC | – | – | – | – | – | – | – | – | – | 1.4 (≈ 1.77 µM)
